Measurements reported in patent US20230103791A1 (GLAXOSMITHKLINE INTELLECTUAL PROPERTY DEVELOPMENT LIMITED, priority 2019, published 2023).

The molecules below were run against T1, human Nav1.8 (Homo sapiens, UniProt Q9Y5Y9) (assay: Nav1.8 sodium channels assay, QPatch 48 HTX electrophysiology in HEK293-Nav1.8 cells). Details: at least one set of experimental runs; read-out: average pIC50 value against Nav1.8 (converted).
T1 construct: expressed in transfected cells; host or cells: HEK293 (HEK293-Nav1.8)
T1 sequence (Q9Y5Y9 whole entry): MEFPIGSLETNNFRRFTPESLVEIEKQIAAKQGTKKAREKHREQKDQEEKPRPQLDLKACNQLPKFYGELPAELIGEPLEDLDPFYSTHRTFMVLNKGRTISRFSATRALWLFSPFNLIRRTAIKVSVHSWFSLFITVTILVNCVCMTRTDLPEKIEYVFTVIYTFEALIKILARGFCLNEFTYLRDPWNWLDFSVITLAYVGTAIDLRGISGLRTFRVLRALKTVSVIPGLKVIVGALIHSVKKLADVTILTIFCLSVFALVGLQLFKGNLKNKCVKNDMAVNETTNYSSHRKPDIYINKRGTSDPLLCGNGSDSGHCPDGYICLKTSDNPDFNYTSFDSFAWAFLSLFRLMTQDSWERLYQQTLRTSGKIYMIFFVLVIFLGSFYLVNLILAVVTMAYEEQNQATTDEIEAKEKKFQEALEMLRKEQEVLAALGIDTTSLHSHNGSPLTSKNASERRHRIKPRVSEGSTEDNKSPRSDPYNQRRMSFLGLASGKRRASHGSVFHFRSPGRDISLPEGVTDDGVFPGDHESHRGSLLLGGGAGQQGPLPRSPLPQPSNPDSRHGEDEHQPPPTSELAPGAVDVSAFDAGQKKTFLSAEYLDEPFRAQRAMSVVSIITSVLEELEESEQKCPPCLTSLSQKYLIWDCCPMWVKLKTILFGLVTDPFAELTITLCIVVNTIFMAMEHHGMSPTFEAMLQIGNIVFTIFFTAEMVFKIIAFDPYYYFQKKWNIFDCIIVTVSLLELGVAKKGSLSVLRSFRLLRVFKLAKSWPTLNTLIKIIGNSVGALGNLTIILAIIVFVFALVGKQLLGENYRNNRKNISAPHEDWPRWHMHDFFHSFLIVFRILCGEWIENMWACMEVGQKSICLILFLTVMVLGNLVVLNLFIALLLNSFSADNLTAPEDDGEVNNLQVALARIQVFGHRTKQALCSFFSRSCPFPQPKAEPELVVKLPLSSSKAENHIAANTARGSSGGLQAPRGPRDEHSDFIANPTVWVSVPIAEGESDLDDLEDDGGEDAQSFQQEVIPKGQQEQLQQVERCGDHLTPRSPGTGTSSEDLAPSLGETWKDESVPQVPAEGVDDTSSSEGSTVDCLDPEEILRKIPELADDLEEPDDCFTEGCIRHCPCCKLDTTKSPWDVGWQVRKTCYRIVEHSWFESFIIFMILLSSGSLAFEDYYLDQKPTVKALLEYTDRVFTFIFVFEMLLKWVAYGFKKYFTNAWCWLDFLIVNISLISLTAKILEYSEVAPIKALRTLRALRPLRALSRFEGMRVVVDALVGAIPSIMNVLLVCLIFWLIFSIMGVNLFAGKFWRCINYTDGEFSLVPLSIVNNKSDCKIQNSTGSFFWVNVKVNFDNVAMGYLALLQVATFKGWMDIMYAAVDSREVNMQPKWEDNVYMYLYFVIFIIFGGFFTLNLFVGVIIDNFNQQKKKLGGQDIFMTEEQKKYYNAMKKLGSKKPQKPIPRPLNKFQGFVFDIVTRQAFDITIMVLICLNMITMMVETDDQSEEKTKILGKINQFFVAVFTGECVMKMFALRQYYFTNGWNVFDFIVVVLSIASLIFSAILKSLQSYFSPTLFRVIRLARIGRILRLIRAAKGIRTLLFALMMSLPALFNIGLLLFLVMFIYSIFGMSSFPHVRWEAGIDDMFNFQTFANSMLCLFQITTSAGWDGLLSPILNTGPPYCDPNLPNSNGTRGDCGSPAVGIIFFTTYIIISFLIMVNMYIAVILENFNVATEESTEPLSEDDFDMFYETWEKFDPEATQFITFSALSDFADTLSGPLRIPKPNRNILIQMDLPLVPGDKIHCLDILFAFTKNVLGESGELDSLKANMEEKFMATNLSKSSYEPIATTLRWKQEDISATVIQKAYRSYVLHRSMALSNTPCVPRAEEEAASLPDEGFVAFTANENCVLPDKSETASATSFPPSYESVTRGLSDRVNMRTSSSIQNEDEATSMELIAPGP
T1 sequence (Q07699 19-218 partner): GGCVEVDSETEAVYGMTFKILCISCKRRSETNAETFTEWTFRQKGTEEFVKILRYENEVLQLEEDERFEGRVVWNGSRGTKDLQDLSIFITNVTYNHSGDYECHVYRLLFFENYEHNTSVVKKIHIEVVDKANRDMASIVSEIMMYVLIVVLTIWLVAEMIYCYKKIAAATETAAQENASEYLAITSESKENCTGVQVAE
Type: cell-based
Summary of the method: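 IC50 came from 6-8 point curves of P2 current amplitude, normalized to baseline and a positive reference, and corrected for run-down using vehicle-only wells. Automated patch clamp used HEK293-Nav1.8 (with Navβ1 and TREK1) at pH 7.4 outside and CsF-based solution inside. An 8 s inactivating step at −46 mV preceded the 0 mV test pulse, repeated at 0.07 Hz.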

Row | SMILES | IC50 [nM]
1 | CC(=O)Nc1[nH]c(=O)ccc1N1CN(c2ccc(F)cc2C)c2ccc(C(F)(F)F)cc2C1=O [Example 163, N-(3-(1-(4-fluoro-2-methylphenyl)-4-oxo-6-(trifluoromethyl)-1,4-dihydroquinazolin-3(2H)-yl)-6-oxo-1,6-dihydropyridin-2-yl)acetamide] | 794 to 7940
2 | Cc1cc(F)ccc1N1CN(c2ccc(=O)[nH]c2C)C(=O)c2cc(C#N)c(C(F)(F)F)cc21 [Example 166, 1-(4-fluoro-2-methylphenyl)-3-(2-methyl-6-oxo-1,6-dihydropyridin-3-yl)-4-oxo-7-(trifluoromethyl)-1,2,3,4-tetra-hydroquinazoline-6-carbonitrile] | ≤ 100
3 | Cc1cc(F)ccc1N1CN(c2ccc(=O)[nH]c2C)C(=O)c2cc(Cl)c(C(F)F)cc21 [Example 168, 6-chloro-7-(difluoromethyl)-1-(4-fluoro-2-methylphenyl)-3-(2-methyl-6-oxo-1,6-dihydropyridin-3-yl)-2,3-dihydroquinazolin-4(1H)-one] | ≤ 100
4 | Cc1cc(F)ccc1N1CN(c2c[nH]c(=O)nc2N)C(=O)c2cc(C(F)(F)F)ccc21 [Example 169, 3-(4-amino-2-oxo-1,2-dihydropyrimidin-5-yl)-1-(4-fluoro-2-methylphenyl)-6-(trifluoromethyl)-2,3-dihydroquinazolin-4(1H)-one] | 126 to 631
5 | Cc1cc(OC(F)(F)F)ccc1N1CN(c2ccc(=O)[nH]c2C)C(=O)c2cc(Cl)c(C#N)nc21 [Example 170, 6-chloro-1-(2-methyl-4-(trifluoromethoxy)phenyl)-3-(2-methyl-6-oxo-1,6-dihydropyridin-3-yl)-4-oxo-1,2,3,4-tetra-hydropyrido[2,3-d]pyrimidine-7-carbonitrile] | ≤ 100
6 | Cc1[nH]c(=O)ccc1N1CN(c2cccc(C(F)(F)F)c2C)c2ncc(C(F)(F)F)cc2C1=O [Example 174, 1-(2-methyl-3-(trifluoromethyl)phenyl)-3-(2-methyl-6-oxo-1,6-dihydropyridin-3-yl)-6-(trifluoromethyl)-2,3-dihydropyrido[2,3-d]pyrimidin-4(1H)-one] | 126 to 631

Next, values leading:

Row | IC50 [nM] | SMILES
7 | 126 to 631 | Cc1cc(F)ccc1N1CN(c2ccc(=O)[nH]c2Br)C(=O)c2cc(C(F)(F)F)ccc21 [Example 164, 3-(2-bromo-6-oxo-1,6-dihydropyridin-3-yl)-1-(4-fluoro-2-methylphenyl)-6-(trifluoromethyl)-2,3-dihydroquinazolin-4(1H)-one]
8 | 126 to 631 | COc1nc2c(cc1F)C(=O)N(c1ccc(=O)[nH]c1C)CN2c1ccc(F)cc1C [Example 165, 6-fluoro-1-(4-fluoro-2-methylphenyl)-7-methoxy-3-(2-methyl-6-oxo-1,6-dihydropyridin-3-yl)-2,3-dihydropyrido[2,3-d]pyrimidin-4(1H)-one]
9 | ≤ 100 | Cc1cc(F)ccc1N1CN(c2ccc(=O)[nH]c2C)C(=O)c2cc(Cl)c(OC(F)F)cc21 [Example 167, 6-chloro-7-(difluoromethoxy)-1-(4-fluoro-2-methylphenyl)-3-(2-methyl-6-oxo-1,6-dihydropyridin-3-yl)-2,3-dihydroquinazolin-4(1H)-one]
10 | ≤ 100 | Cc1cc(F)ccc1N1CN(c2ccc(=O)[nH]c2C)C(=O)c2cc(Cl)c(C#N)nc21 [Example 171, 6-chloro-1-(4-fluoro-2-methylphenyl)-3-(2-methyl-6-oxo-1,6-dihydropyridin-3-yl)-4-oxo-1,2,3,4-tetra-hydropyrido[2,3-d]pyrimidine-7-carbonitrile]
11 | ≤ 100 | Cc1cc(OC(F)(F)F)ccc1N1CN(c2ccc(=O)[nH]c2C)C(=O)c2cc(Cl)c(C#N)cc21 [Example 172, 6-chloro-1-(2-methyl-4-(trifluoromethoxy)phenyl)-3-(2-methyl-6-oxo-1,6-dihydropyridin-3-yl)-4-oxo-1,2,3,4-tetra-hydroquinazoline-7-carbonitrile]
12 | ≤ 100 | Cc1cc(F)ccc1N1CN(c2cnc(=O)[nH]c2C)C(=O)c2cc(Cl)c(C#N)cc21 [Example 173, 6-chloro-1-(4-fluoro-2-methylphenyl)-3-(6-methyl-2-oxo-1,2-dihydropyrimidin-5-yl)-4-oxo-1,2,3,4-tetra-hydroquinazoline-7-carbonitrile]
